Assay results published in patent publication US4803157A, “Hydrolyzable fluorescent substrates for phosphatases and analytical use thereof” (Eastman Kodak Company, priority 1986, dated 1989).
Counter-ions that a name gives are not always drawn.

What was measured:
beef liver ALP = test: Solution assay for alkaline phosphatase (fluorescence); format: biochemical; conditions: excitation 535 nm, emission 580 nm
Description: A solution was prepared using the substrate of Example 1 (10^-5 molar), magnesium acetate ([…]) and TRIS buffer (0.1 molar, pH 8.5). One milliliter of this solution was placed in each of two test cells. To one cell was added beef liver ALP (100 μl, 10^-5 molar). No ALP was placed in the second cell.
The relative fluorescence of the solution in the test cell containing the ALP-hydrolyzed substrate was measured at an excitation of 535 nm and an emission of 580 nm. […]

[1] = system: calf intestine alkaline phosphatase; test: Kinetic study of alkaline phosphatase with substrate (double reciprocal plot); format: biochemical; conditions: 540 nm, substrate 0.1-10 mmolar, enzyme 0.01 I.U./ml, sodium carbonate 100 mmolar, pH 10
Text: The magnesium salt substrate prepared in Example 1 was used to determine reaction rates and kinetic parameters for alkaline phosphatase at 540 nm. The study was done by using the substrate (concentration range 0.1 mmolar to 10 mmolar), calf intestine alkaline phosphatase (0.01 I.U./ml), sodium carbonate (100 mmolar, pH 10), magnesium chloride (1 mmolar) and zinc perchlorate (1 mmolar). From the data obtained, a double reciprocal plot was drawn.

| SMILES | relative fluorescence of unhydrolyzed substrate (beef liver ALP; no ALP added) | relative fluorescence of ALP-hydrolyzed substrate (beef liver ALP; substrate 10^-5 molar, TRIS 0.1 molar pH 8.5, with beef liver ALP) | rate of reaction (Vmax) [1] | Km ([1]; MgCl2 1 mmolar, zinc perchlorate 1 mmolar, read-out: Michaelis constant (Km)) [mM] |
| --- | --- | --- | --- | --- |
| O=C1C=Cc2ccc(OP(=O)(O)O)c3cccc1c23 [substrate of Example 1, PHENALENONE-6-PHOSPHATE] | Minimal fluorescence | rapid generation of fluorescence | – | – |
| O=C1C=Cc2ccc(OP(=O)(O)O)c3cccc1c23 [phenalenone-6-phosphate magnesium salt] | – | – | 0.029 absorbance (A) units/minute | 1.4 |
